Where two headings read alike, the source gives them in different places.
Assays:
[1] = target: T1, ENPP-1, HEK293 cells (Homo sapiens, UniProt P22413); assay: Cellular enzymatic assay of ENPP-1 inhibitors using TMP-pNP as substrate, HEK 293 cells; type: cell-based
T1 construct: ENPP-1 were mainly expressed on the surface of cell membrane; endogenous in cells; host or cells: HEK293
T1 sequence (P22413 1-925): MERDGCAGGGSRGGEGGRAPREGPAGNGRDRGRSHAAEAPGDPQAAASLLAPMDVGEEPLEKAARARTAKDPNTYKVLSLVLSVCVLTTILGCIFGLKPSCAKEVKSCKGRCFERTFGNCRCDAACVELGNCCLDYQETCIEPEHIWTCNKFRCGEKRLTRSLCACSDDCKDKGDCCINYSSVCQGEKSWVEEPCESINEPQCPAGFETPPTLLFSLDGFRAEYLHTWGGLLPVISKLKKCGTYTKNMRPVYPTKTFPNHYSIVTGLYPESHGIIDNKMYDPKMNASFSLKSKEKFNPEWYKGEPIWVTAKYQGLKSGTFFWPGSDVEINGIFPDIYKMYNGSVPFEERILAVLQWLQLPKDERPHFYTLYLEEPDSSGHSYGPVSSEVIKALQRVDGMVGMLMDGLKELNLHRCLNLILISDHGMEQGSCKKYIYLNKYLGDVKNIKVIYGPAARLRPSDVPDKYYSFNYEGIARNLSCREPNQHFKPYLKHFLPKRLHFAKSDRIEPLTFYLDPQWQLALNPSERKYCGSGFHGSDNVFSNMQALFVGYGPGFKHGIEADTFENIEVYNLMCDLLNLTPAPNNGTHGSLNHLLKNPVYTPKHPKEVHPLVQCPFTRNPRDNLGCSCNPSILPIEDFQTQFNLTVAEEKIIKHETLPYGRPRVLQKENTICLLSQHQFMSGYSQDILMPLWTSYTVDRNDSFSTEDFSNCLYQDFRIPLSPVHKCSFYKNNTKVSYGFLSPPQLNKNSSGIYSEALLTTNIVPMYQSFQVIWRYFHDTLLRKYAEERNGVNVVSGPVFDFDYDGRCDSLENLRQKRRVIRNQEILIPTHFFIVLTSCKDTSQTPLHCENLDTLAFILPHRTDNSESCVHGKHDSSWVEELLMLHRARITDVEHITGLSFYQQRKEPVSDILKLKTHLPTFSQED
Procedure: ENPP-1 were mainly expressed on the surface of cell membrane where it hydrolytes 2′3′-cGAMP to generate 5′-GMP and 5′-AMP. ENPP-1 also has the ability to hydrolyzes artificial phosphoric acid ester TMP-pNP to nucleotide-5′-monophosphate and p-nitrophcnol there, which is a chromogenic product.
8 point of different concentrations of each inhibitor were prepared with the final assay concentrations starting at 20 μM. 3× series dilution by DMEM medium without FBS was applied. Prior to adding inhibitors, 75000 cells per well were incubated at 37° C., 5% CO2 in DMEM for 24 hours. After removing the supernatant medium, 50 μL inhibitor solution was added into each well with cultured cells and incubate at 37° C., 5% CO2 for 60 minutes.
The IC50 values for percent inhibition versus compound concentration are determined by fitting the inhibition curves using a four-parameter variable slope model in GraphPad Prism® 8.

[2] = target: T2, human soluble ENPP1 (Homo sapiens, UniProt P22413); assay: ENPP1 activity assay using p-Nitrophenyl-5′-TMP as a substrate; type: biochemical
T2 construct: 20 ng of human soluble ENPP1
T2 sequence (P22413 103-925 limits assumed): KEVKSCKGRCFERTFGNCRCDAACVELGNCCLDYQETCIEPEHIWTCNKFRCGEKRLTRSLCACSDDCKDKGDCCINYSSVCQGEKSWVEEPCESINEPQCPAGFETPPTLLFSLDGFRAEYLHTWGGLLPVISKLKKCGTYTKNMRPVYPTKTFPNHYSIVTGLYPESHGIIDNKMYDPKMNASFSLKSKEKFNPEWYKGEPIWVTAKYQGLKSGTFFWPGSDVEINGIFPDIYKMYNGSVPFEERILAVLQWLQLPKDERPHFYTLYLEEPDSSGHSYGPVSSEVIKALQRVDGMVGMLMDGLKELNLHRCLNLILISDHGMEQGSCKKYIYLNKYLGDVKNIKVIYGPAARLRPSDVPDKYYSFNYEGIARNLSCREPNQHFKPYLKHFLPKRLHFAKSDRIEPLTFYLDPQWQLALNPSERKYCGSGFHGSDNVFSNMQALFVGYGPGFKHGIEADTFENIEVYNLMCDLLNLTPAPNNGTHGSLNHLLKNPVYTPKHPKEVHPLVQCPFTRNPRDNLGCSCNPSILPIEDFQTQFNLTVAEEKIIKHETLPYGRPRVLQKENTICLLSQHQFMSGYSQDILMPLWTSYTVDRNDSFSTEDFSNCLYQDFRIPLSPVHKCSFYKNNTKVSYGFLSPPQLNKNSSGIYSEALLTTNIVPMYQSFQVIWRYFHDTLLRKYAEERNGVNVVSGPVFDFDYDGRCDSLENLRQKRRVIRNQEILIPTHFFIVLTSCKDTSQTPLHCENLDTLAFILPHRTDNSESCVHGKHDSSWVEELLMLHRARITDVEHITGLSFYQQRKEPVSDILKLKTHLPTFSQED
Procedure, shortened: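 Human soluble ENPP1 (20 ng) was preincubated with inhibitor for 30 min at room temperature. TMP-pNP was then added as a 2 mM […] solution and incubated 1 h at RT, with p-nitrophenol formation read by OD. IC50 came from four-parameter fits of % inhibition relative to no-inhibitor and blank controls.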

[3] = Pharmacokinetics in mice; type: in vivo; conditions: mouse, plasma, male CD-1 mice; for AUC / clearance / half-life / Vd: 1 mg/kg, iv; for Vd: read-out: Vdss; for bioavailability: oral gavage (PO) at 5 mg/kg vs IV 1 mg/kg
Procedure: A dosing solution of test sample was prepared at 1.0 mg/mL in 5% DMSO/40% PEG400/55% water and administered to male CD-1 mice (4-6 weeks old, 20-30 grams, 3 animals each group) via intravenous (IV) bolus at 1 mg/kg and by oral gavage (PO) at 5 mg/kg. Blood samples (˜0.03 mL each time point) were collected via the jugular vein into tubes containing sodium heparin as the anticoagulant at 0.033, 0.083, 0.25, 0.5, 1, 2, 4, 8 and 24 hours post dose for IV administration and 0.083, 0.25, 0.5, 1, 2, 4, 8 and 24 hours post dose for PO administration. The blood samples were then centrifuged for 5 minutes in a centrifuge refrigerated at 4° C. The resultant plasma samples were analyzed using LC/MS/MS to determine concentrations of test sample. Non-compartmental model with WinNonlin (Phoenix™, version 8.0) software was used to calculate pharmacokinetic (PK) parameters.

[4] = target: T2, human soluble ENPP1; assay: ENPP1 activity assay using p-Nitrophenyl-5′-AMP as a substrate; type: biochemical
Procedure, shortened: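 Human soluble ENPP1 (35 ng) preincubated with inhibitor 30 min at RT, then p-nitrophenyl-5′-AMP added (3 mM solution, 2× final) and incubated 1 h at RT. p-Nitrophenolate release read at OD 405 nm; % inhibition vs no-inhibitor and blank controls, IC50 from four-parameter fit.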

[5] = target: T3, ENPP-1, MDA-MB-231 cells (Homo sapiens, UniProt P22413); assay: cell-based; conditions: for inhibition at 20 µM: MDA-MB-231, read-out: % Inhibition (at 20 μM)
T3 sequence (P22413 1-925): T1 sequence (P22413 1-925)

[6] = HEK293, HEK 293 cells, at 20 μM, read-out: Inhibition (at 20 μM)
[7] = HEK293, read-out: Inhibition (at 20 μM)

SMILES | IC50 [1] | inhibition at 20 µM [1, 6] | IC50 [2] | AUC [3] | clearance [3] | half-life [3] | Vd [3] | IC50 [4] | IC50 [5] | inhibition at 20 µM [5] | inhibition at 20 µM [1, 7] | bioavailability [3]
COc1ccc2c(ncc3ncn(Cc4ccc(S(N)(=O)=O)cc4)c32)n1 [Compound 39, 4-((7-methoxy-1H-imidazo[4,5-c][1,8]naphthyridin-1-yl)methyl)benzenesulfonamide] | 730 nM | 94% | 0.25 nM | 115 ng·h/mL | 115 mL/min/kg | 0.33 h | 3.1 L/kg | 0.42 nM | 400 nM | 82% | – | –
COc1ccc2c(ncc3ncn(Cc4ccc(S(N)(=O)=O)cn4)c32)n1 [Compound 40, 6-((7-methoxy-1H-imidazo[4,5-c][1,8]naphthyridin-1-yl)methyl)pyridine-3-sulfonamide] | 130 nM | – | 0.15 nM | 241 ng·h/mL | 70 mL/min/kg | 2.7 h | 7.3 L/kg | 0.23 nM | 65 nM | 85% | 96% | –
COc1ccc2c(ncc3ncn(Cc4ccc(S(N)(=O)=O)nc4)c32)n1 [Compound 41, 5-((7-methoxy-1H-imidazo[4,5-c][1,8]naphthyridin-1-yl)methyl)pyridine-2-sulfonamide] | 660 nM | 96% | 0.21 nM | 227 ng·h/mL | 74 mL/min/kg | 1.2 h | 4 L/kg | 0.9 nM | 310 nM | 81% | – | –
COc1ccc2c(ncc3ncn(Cc4ccc(NS(N)(=O)=O)cc4)c32)n1 [Compound 46, 4-((7-methoxy-1H-imidazo[4,5-c][1,8]naphthyridin-1-yl)methyl)phenyl sulfamide] | 2400 nM | – | 5.2 nM | – | – | – | – | – | 1600 nM | 75% | 85% | –
COc1ccc2c(ncc3nc(C(F)(F)F)n(Cc4ccc(S(N)(=O)=O)cc4)c32)n1 [Compound 47, 4-((7-methoxy-2-(trifluoromethyl)-1H-imidazo[4,5-c][1,8]naphthyridin-1-yl)methyl)benzenesulfonamide] | 5000 nM | 77% | 1 nM | – | – | – | – | – | 3400 nM | 72% | – | –
COc1cnc2c(c1)ncc1ncn(Cc3ccc(S(N)(=O)=O)cc3)c12 [Compound 49, 4-((7-methoxy-1H-imidazo[4,5-c][1,5]naphthyridin-1-yl)methyl)benzenesulfonamide] | 10000 nM | 67% | 1.9 nM | – | – | – | – | 4.8 nM | 6000 nM | 67% | – | –
COc1ccc2c(ncc3[nH]c(=O)n(Cc4ccc(S(N)(=O)=O)cc4F)c32)n1 [Compound 102, 3-fluoro-4-((7-methoxy-2-oxo-2,3-dihydro-1H-imidazo[4,5-c][1,8]naphthyridin-1-yl)methyl)benzenesulfonamide] | – | – | 0.51 nM | 657 ng·h/mL | 26 mL/min/kg | 5.1 h | 5.2 L/kg | 0.74 nM | 430 nM | 86% | – | 8.4%
COc1ccc2c(ncc3c2n(Cc2c(F)cc(S(N)(=O)=O)cc2F)c(=O)n3C)n1 [Compound 114, 3,5-difluoro-4-((7-methoxy-3-methyl-2-oxo-2,3-dihydro-1H-imidazo[4,5-c][1,8]naphthyridin-1-yl)methyl)benzenesulfonamide] | – | – | 0.27 nM | 454 ng·h/mL | 37 mL/min/kg | 3.9 h | 12 L/kg | 0.23 nM | 80 nM | 77% | – | 33%
COc1ccc2c(ncc3nnn(Cc4ccc(S(N)(=O)=O)cn4)c32)n1 [Compound 119, 6-((7-methoxy-1H-[1,2,3]triazolo[4,5-c][1,8]naphthyridin-1-yl)methyl)pyridine-3-sulfonamide] | – | – | 0.7 nM | 301 ng·h/mL | 56 mL/min/kg | 1.4 h | 4.5 L/kg | 1.1 nM | 120 nM | 83% | – | –
COc1ccc2c(ncc3nnn(Cc4ccc(S(N)(=O)=O)c(F)c4)c32)n1 [Compound 120, 2-fluoro-4-((7-methoxy-1H-[1,2,3]triazolo[4,5-c][1,8]naphthyridin-1-yl)methyl)benzenesulfonamide] | – | – | 1.78 nM | 260 ng·h/mL | 65 mL/min/kg | 2 h | 8.9 L/kg | 4.4 nM | 1100 nM | 79% | – | –
COc1ccc2c(ncc3cnn(Cc4ccc(S(N)(=O)=O)c(F)c4)c32)n1 [Compound 122a, 2-fluoro-4-((7-methoxy-1H-pyrazolo[4,3-c][1,8]naphthyridin-1-yl)methyl)benzenesulfonamide] | – | – | 1.6 nM | 170 ng·h/mL | 100 mL/min/kg | 0.33 h | 2 L/kg | 4.3 nM | 1700 nM | 74% | – | –

Source: patent US11673889B2, “Substituted imidazo[4,5-c][1,8]naphthyridines as phosphodiesterase inhibitors” (Nanjing Zhengxiang Pharmaceuticals Co., Ltd., priority 2019, dated 2023)
